Measurements as given in ChEMBL document CHEMBL5346928, “Discovery of orally effective and safe GPR40 agonists by incorporating a chiral, rigid and polar sulfoxide into β-position to the carboxylic acid” (Eur J Med Chem, 2023).
Each block holds one compound with its values, some of them ahead of it.

Columns and labels:
[1] = target: GPR40-Galpha16 (Homo sapiens, UniProt O14842+P30679); experiment: Agonist activity at human GPR40/Galpha-16 expressed in HEK293 cells by Fluo4-AM dye based intracellular calcium flux assay; format: cell-based
[2] = Inhibition of bile acid efflux in Sprague-Dawley rat hepatocytes assessed as decrease in biliary excretion index incubated for 15 mins followed by compound washout for 15 mins and subsequent addition of compounds with d8-TCA measured after 15 mins by LC-MS/MS analysis; format: toxicity, cell-based, Hepatocyte; conditions: 0.5 h, at 5 to 25 µM, dose 5-25 µM, time 30 min
[3] = target: Free fatty acid receptor 1 (Homo sapiens, UniProt O14842); experiment: Agonist activity at human GPR40 expressed in HEK293 cells by Fluo4-AM dye based intracellular calcium flux assay; format: functional, cell-based
[4] = system: Hepatocyte; experiment: Disruption of plasma membrane integrity in rat primary hepatocytes assessed as LDH release in cytosol at 100 uM incubated for 24 hrs by absorbance based assay; format: toxicity, cell-based
[5] = AUC (0 to t) in Sprague-Dawley rat at 1 mg/kg, iv by LC-MS analysis; format: ADME, organism-based; design: dose 1 mg/kg, route iv; conditions: in vivo
[6] = Cmax in Sprague-Dawley rat at 1 mg/kg, iv by LC-MS analysis; format: ADME, organism-based; design: dose 1 mg/kg, route iv; conditions: in vivo
[7] = system: Hepatocyte; experiment: Cytotoxicity against human primary hepatocytes assessed as cell viability at 1 to 100 uM incubated for 24 hrs by WST-1 assay; format: toxicity, cell-based; conditions: dose 1-100 µM
[8] = Metabolic stability in human liver microsomes assessed as half life; format: ADME, Microsome
[9] = Tmax in Sprague-Dawley rat at 10 mg/kg, po by LC-MS analysis; format: ADME, organism-based; conditions: in vivo
[10] = Metabolic stability in human liver microsomes assessed as intrinsic clearance; format: ADME, Microsome
[11] = MRTlast in Sprague-Dawley rat at 10 mg/kg, po by LC-MS analysis; format: ADME, organism-based; conditions: in vivo
[12] = Metabolic stability in rat liver microsomes assessed as half life; format: ADME, Microsome
[13] = AUC (0 to t) in Sprague-Dawley rat at 10 mg/kg, po by LC-MS analysis; format: ADME, organism-based; design: dose 10 mg/kg, route po; conditions: in vivo
[14] = Oral bioavailability in Sprague-Dawley rat […] by LC-MS analysis; format: ADME, organism-based; conditions: in vivo
[15] = Cmax in Sprague-Dawley rat at 10 mg/kg, po by LC-MS analysis; format: ADME, organism-based; design: dose 10 mg/kg, route po; conditions: in vivo
[16] = system: Hepatocyte; experiment: Disruption of plasma membrane integrity in human primary hepatocytes assessed as LDH release in cytosol upto 100 uM incubated for 24 hrs by absorbance based assay; format: toxicity, cell-based
[17] = Half life in Sprague-Dawley rat at 1 mg/kg, iv by LC-MS analysis; format: ADME, organism-based; conditions: in vivo
[18] = Metabolic stability in rat liver microsomes assessed as intrinsic clearance; format: ADME, Microsome; conditions: read-out: CLH
[19] = MRTlast in Sprague-Dawley rat at 1 mg/kg, iv by LC-MS analysis; format: ADME, organism-based; conditions: in vivo
[20] = Half life in Sprague-Dawley rat at 10 mg/kg, po by LC-MS analysis; format: ADME, organism-based; conditions: in vivo

Sequence of Free fatty acid receptor 1 (O14842 whole entry): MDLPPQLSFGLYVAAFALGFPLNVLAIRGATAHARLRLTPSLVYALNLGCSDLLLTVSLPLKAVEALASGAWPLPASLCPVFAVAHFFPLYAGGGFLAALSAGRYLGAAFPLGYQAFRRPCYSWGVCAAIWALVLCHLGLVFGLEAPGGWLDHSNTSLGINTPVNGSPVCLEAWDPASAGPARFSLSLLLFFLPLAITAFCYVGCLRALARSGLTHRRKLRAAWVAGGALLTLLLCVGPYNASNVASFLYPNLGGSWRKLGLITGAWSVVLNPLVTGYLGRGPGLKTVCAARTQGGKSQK
Sequence of GPR40-Galpha16 (O14842 whole entry): as above
Sequence of GPR40-Galpha16 (P30679 whole entry): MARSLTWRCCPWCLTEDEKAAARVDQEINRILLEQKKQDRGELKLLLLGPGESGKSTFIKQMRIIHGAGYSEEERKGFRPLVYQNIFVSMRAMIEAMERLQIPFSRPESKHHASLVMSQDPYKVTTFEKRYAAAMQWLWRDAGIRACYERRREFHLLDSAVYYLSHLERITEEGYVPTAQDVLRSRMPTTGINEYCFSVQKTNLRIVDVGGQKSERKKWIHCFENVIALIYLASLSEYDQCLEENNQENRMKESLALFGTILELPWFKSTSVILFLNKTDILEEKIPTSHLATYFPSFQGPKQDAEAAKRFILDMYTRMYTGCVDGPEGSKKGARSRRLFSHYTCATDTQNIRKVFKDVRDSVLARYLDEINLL

SMILES: CC#C[C@H](CC(=O)O)c1ccc(OCc2ccc(-c3cccc(OC)c3)cc2)cc1
- EC50 [1]: 0.0933 µM

SMILES: Cc1cc(OCCCN2CCOCC2)cc(C)c1-c1cccc(COc2ccc([S+]([O-])CC(=O)O)cc2)c1 (racemic)
- EC50 [3]: 0.0667 µM

SMILES: Cc1noc(C)c1-c1cccc(COc2ccc([S+]([O-])CC(=O)O)cc2)c1 (racemic)
- EC50 [3]: 5.38 µM

SMILES: Cc1cncc(C)c1-c1cccc(COc2ccc([S+]([O-])CC(=O)O)cc2)c1 (racemic)
- EC50 [3]: 3.1 µM

SMILES: O=C(O)C[S+]([O-])c1ccc(OCc2cccc(-c3ccncc3Cl)c2)cc1 (racemic)
- EC50 [3]: 1 µM

SMILES: Cc1cc(OCC2(C)COC2)cc(C)c1-c1cccc(COc2ccc([S+]([O-])CC(=O)O)cc2)c1 (racemic)
- EC50 [3]: 0.0628 µM

SMILES: CCCCC/C=C\C/C=C\CCCCCCCC(=O)O [LINOLEIC ACID]
- EC50 [3]: 6.04 µM
- EC50 [1]: 10.1 µM

Continued, in another order:

- EC50 [3]: 0.252 µM
SMILES: Cc1cccc(C)c1-c1cccc(COc2ccc(S(=O)(=O)CC(=O)O)cc2)c1
- inhibition (INH) [2]: Dose-Dependent Effect

- AUC(0-t) [5]: 871 ng·h/mL
- Cmax [6]: 858 ng/mL
- t1/2 [8]: 6.3 min
- Tmax [9]: 2 h
- CLH [10]: 8.8 µL/min/mg
- MRT last [11]: 4.5 h
- half-life [12]: 3.82 h
- AUC(0-t) [13]: 7620 ng·h/mL
- bioavailability [14]: 87.5%
- Cmax [15]: 1230 ng/mL
- half-life [17]: 1.9 h
- microsomal CLint [18]: 6.3 µL/min/mg
- MRT last [19]: 1.7 h
- half-life [20]: 3.2 h
SMILES: Cc1cccc(C)c1-c1cccc(COc2ccc([S@@+]([O-])CC(=O)O)cc2)c1
- Activity [4]: Toxic
- Activity [7]: Non-Toxic
- Activity [16]: Non-Toxic

- EC50 [3]: 0.716 µM
SMILES: Cc1cccc(C)c1-c1ccc(COc2ccc(S(=O)(=O)CC(=O)O)cc2)cc1

- EC50 [3]: 4.88 µM
SMILES: Cc1ccccc1C#Cc1ccc(S(=O)(=O)CC(=O)O)cc1

- EC50 [3]: 2.9 µM
SMILES: COc1ccc(F)c(-c2cccc(COc3ccc(S(=O)(=O)CC(=O)O)cc3)c2)c1

- EC50 [3]: 2 µM
SMILES: Cc1cnccc1-c1cccc(COc2ccc([S+]([O-])CC(=O)O)cc2)c1 (racemic)

- EC50 [3]: 0.454 µM
SMILES: Cc1cccc(C)c1-c1ccc(COc2ccc([S+]([O-])CC(=O)O)cc2)cc1 (racemic)
